Reference: paper PMC10648159, “Novel MAGL Inhibitors Alleviate LPS-Induced Acute Kidney Injury by Inhibiting NLRP3 Inflammatory Vesicles, Modulating Intestinal Flora, Repairing the Intestinal Barrier, and Interfering with Serum Metabolism” (Molecules, 2023)

Target: T1, monoacylglycerol lipase (MAGL) (Homo sapiens, UniProt Q99685)
T1 construct: gene MGLL
T1 sequence (Q99685 1-303): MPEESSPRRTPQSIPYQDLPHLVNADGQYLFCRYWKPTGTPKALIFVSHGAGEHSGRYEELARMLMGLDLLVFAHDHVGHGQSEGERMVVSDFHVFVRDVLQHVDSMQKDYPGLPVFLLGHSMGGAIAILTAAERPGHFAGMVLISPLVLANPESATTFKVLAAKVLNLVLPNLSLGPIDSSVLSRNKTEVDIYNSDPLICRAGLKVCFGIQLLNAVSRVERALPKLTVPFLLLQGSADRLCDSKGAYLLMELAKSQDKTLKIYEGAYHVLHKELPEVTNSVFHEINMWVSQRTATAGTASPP
Test: Cayman Monoacylglycerol Lipase Inhibitor Screening Assay Kit, absorbance at […] nm, […] min preincubation; maximum inhibition about […]
Type: biochemical

## CN1c2ccccc2CC1C(=O)N1CCC(C(=O)Nc2cccc(Cl)c2)CC1 (stereo not shown) [M-18C, MAGLZ-18(c)]
  IC50: 663 nM
